Source: PubChem BioAssay AID264 (DTP/NCI, 2004)
Where “and” joins values, the source holds several entries; their conditions need not be identical. Identical values can stand only once. Results filed as inconclusive are left out.

Test system: nude mice, LX-1 lung xenograft intrarenal, tumor weight T/C
Experiment: NCI In Vivo Anticancer Drug Screen. Data for tumor model Human Lung LX-1 Xenograft (intrarenal inoculation) in NU/NU Swiss (nude) mice
Details: endpoint: mean tumor weight change, higher = larger tumour
Method in brief: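 Antitumor effect is expressed as a ratio: the mean tumor measurement of the drug-treated group relative to that of the vehicle-dosed control group.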

[1] = dose: 150.0 mg/kg/injection, schedule: Q04DX003 (sc), vehicle: Klucel (hydroxypropylcellulose) (HPC)
[2] = dose: 12.5 mg/kg/injection, schedule: Q01DX010 (sc), vehicle: saline
[3] = dose: 300.0 mg/kg/injection, schedule: Q04DX003 (sc), vehicle: Klucel (hydroxypropylcellulose) (HPC)
[4] = dose: 600.0 mg/kg/injection, schedule: Q04DX003 (sc), vehicle: Klucel (hydroxypropylcellulose) (HPC)
[5] = dose: 1200.0 mg/kg/injection, schedule: Q04DX003 (sc), vehicle: Klucel (hydroxypropylcellulose) (HPC)
[6] = dose: 300.0 mg/kg/injection, schedule: Q04DX003 (sc), vehicle: saline with Tween-80
[7] = dose: 600.0 mg/kg/injection, schedule: Q04DX003 (sc), vehicle: saline with Tween-80
[8] = dose: 1200.0 mg/kg/injection, schedule: Q04DX003 (sc), vehicle: saline with Tween-80
[9] = dose: 25.0 mg/kg/injection, schedule: Q04DX003 (sc), vehicle: saline

Structure (SMILES): O=C1C2(Cl)C3(Cl)C4(Cl)C(Cl)(Cl)C5(Cl)[C@]3(Cl)C1(Cl)[C@]5(Cl)C24Cl (stereo partly drawn)
- T/C (dose: 37.5 mg/kg/injection, schedule: Q04DX003 (sc), vehicle: Klucel (hydroxypropylcellulose) (HPC)): 118 % of control
- T/C (dose: 75.0 mg/kg/injection, schedule: Q04DX003 (sc), vehicle: Klucel (hydroxypropylcellulose) (HPC)): 95 % of control
- T/C [1]: 78 % of control

Structure (SMILES): Nc1nncs1
- T/C [2]: 104 % of control

Structure (SMILES): c1ccc([P+](c2ccccc2)(c2ccccc2)c2ccccc2)cc1
- T/C (dose: 2.5 mg/kg/injection, schedule: Q04DX003 (sc), vehicle: saline): 93 % of control
- T/C (dose: 5.0 mg/kg/injection, schedule: Q04DX003 (sc), vehicle: saline): 107 % of control
- T/C (dose: 10.0 mg/kg/injection, schedule: Q04DX003 (sc), vehicle: saline): 71 % of control and 87 % of control

Structure (SMILES): CC(C)CCCCCCCCCCCCC(=O)NCC(=O)NC1C(C)OC(Nc2ncnc3nc[nH]c23)C(O)C1O (stereo not drawn)
- T/C (dose: 4.0 mg/kg/injection, schedule: Q01DX010 (sc), vehicle: distilled water + Tween-80): 31 % of control and 33 % of control
- T/C (dose: 8.0 mg/kg/injection, schedule: Q01DX010 (sc), vehicle: distilled water + Tween-80): 24 % of control
- T/C (dose: 32.0 mg/kg/injection, schedule: Q01DX010 (sc), vehicle: distilled water + Tween-80): 28 % of control

Structure (SMILES): CC[C@](O)(C(=O)O)c1cc2n(c(=O)c1CO)Cc1cc3ccccc3nc1-2
- T/C (dose: 16.0 mg/kg/injection, schedule: Q04DX003 (sc), vehicle: saline): -5 % of control
- T/C (dose: 31.25 mg/kg/injection, schedule: Q04DX003 (sc), vehicle: saline): 25 % of control
- T/C (dose: 62.5 mg/kg/injection, schedule: Q04DX003 (sc), vehicle: saline): 1 % of control
- T/C (dose: 125.0 mg/kg/injection, schedule: Q04DX003 (sc), vehicle: saline): -48 % of control

Structure (SMILES): CSc1ncc2ncn(C3OC(CO)C(O)C3O)c2n1 (stereo not drawn)
- T/C [3]: 61 % of control
- T/C [4]: 57 % of control
- T/C [5]: 56 % of control
- T/C (dose: 2400.0 mg/kg/injection, schedule: Q04DX003 (sc), vehicle: Klucel (hydroxypropylcellulose) (HPC)): 53 % of control

Structure (SMILES): CC(=O)OCc1cc(=O)n(C)c2c3c4c(cc12)c(C)cc(=O)n4CO3
- T/C (dose: 25.0 mg/kg/injection, schedule: Q01DX010 (sc), vehicle: Klucel (hydroxypropylcellulose) (HPC)): 113 % of control
- T/C (dose: 50.0 mg/kg/injection, schedule: Q01DX010 (sc), vehicle: Klucel (hydroxypropylcellulose) (HPC)): 83 % of control and 222 % of control
- T/C (dose: 200.0 mg/kg/injection, schedule: Q01DX010 (sc), vehicle: Klucel (hydroxypropylcellulose) (HPC)): 93 % of control and 105 % of control

Structure (SMILES): Cc1cc(NCCN(C(C)C)C(C)C)nc(/N=C(\N)Nc2ccc(Cl)c(C(F)(F)F)c2)n1
- T/C (dose: 40.0 mg/kg/injection, schedule: Q04DX003 (sc), vehicle: Klucel (hydroxypropylcellulose) (HPC)): 45 % of control
- T/C (dose: 80.0 mg/kg/injection, schedule: Q04DX003 (sc), vehicle: Klucel (hydroxypropylcellulose) (HPC)): 60 % of control
- T/C (dose: 160.0 mg/kg/injection, schedule: Q04DX003 (sc), vehicle: Klucel (hydroxypropylcellulose) (HPC)): 46 % of control
- T/C (dose: 320.0 mg/kg/injection, schedule: Q04DX003 (sc), vehicle: Klucel (hydroxypropylcellulose) (HPC)): 62 % of control

Structure (SMILES): CC(=O)OCC1OC(OC(C)=O)C(NC(=O)N(CCCl)N=O)C(OC(C)=O)C1OC(C)=O (stereo not drawn)
- T/C (dose: 12.0 mg/kg/injection, schedule: Q04DX003 (sc), vehicle: Klucel (hydroxypropylcellulose) (HPC)): 36 % of control
- T/C (dose: 24.0 mg/kg/injection, schedule: Q04DX003 (sc), vehicle: Klucel (hydroxypropylcellulose) (HPC)): 25 % of control

Structure (SMILES): COc1cc([C@@H]2c3cc4c(cc3[C@@H](OC3OC5COC(C)OC5C(O)C3O)[C@H]3COC(=O)[C@H]23)OCO4)cc(OC)c1O (stereo partly drawn)
- T/C (dose: 2.0 mg/kg/injection, schedule: Q01DX010 (sc), vehicle: saline): 153 % of control
- T/C (dose: 4.0 mg/kg/injection, schedule: Q01DX010 (sc), vehicle: saline): 80 % of control
- T/C (dose: 8.0 mg/kg/injection, schedule: Q01DX010 (sc), vehicle: saline): 85 % of control
- T/C (dose: 16.0 mg/kg/injection, schedule: Q01DX010 (sc), vehicle: saline): 31 % of control

Structure (SMILES): NCCCC(N)(C(=O)O)C(F)F (stereo not drawn)
- T/C (dose: 300.0 mg/kg/injection, schedule: Q04DX003 (sc), vehicle: distilled water + alcohol): 101 % of control
- T/C (dose: 600.0 mg/kg/injection, schedule: Q04DX003 (sc), vehicle: distilled water + alcohol): 87 % of control
- T/C (dose: 1200.0 mg/kg/injection, schedule: Q04DX003 (sc), vehicle: distilled water + alcohol): 82 % of control
- T/C (dose: 2400.0 mg/kg/injection, schedule: Q04DX003 (sc), vehicle: distilled water + alcohol): 92 % of control

Structure (SMILES): CC(Cc1ccc(O)cc1)NCC(O)c1ccc(O)c(O)c1 (stereo not drawn)
- T/C [6]: 62 % of control
- T/C [7]: 98 % of control
- T/C [8]: 61 % of control

Structure (SMILES): CS(=O)(=O)c1ncc(Br)cn1
- T/C (dose: 75.0 mg/kg/injection, schedule: Q04DX003 (sc), vehicle: saline with Tween-80): 100 % of control
- T/C (dose: 150.0 mg/kg/injection, schedule: Q04DX003 (sc), vehicle: saline with Tween-80): 57 % of control
- T/C [6]: 84 % of control

Structure (SMILES): CCOC(=O)C(C)(C)Oc1ccc(Cl)cc1
- T/C [6]: 73 % of control
- T/C [7]: 97 % of control
- T/C [8]: 81 % of control

Structure (SMILES): Nc1ccc(C(OC(=O)c2cc3ccccc3c(Cc3c(O)c(C(=O)OC(c4ccc(N)cc4)(c4ccc(N)cc4)c4ccc(N)cc4)cc4ccccc34)c2O)(c2ccc(N)cc2)c2ccc(N)cc2)cc1
- T/C (dose: 36.0 mg/kg/injection, schedule: Q04DX003 (sc), vehicle: saline with Tween-80): 87 % of control
- T/C (dose: 72.0 mg/kg/injection, schedule: Q04DX003 (sc), vehicle: saline with Tween-80): 116 % of control
- T/C (dose: 144.0 mg/kg/injection, schedule: Q04DX003 (sc), vehicle: saline with Tween-80): 67 % of control
- T/C (dose: 288.0 mg/kg/injection, schedule: Q04DX003 (sc), vehicle: saline with Tween-80): 58 % of control

Structure (SMILES): [Cl][Mn][Cl]
- T/C (dose: 75.0 mg/kg/injection, schedule: Q04DX003 (sc), vehicle: saline): 68 % of control
- T/C (dose: 150.0 mg/kg/injection, schedule: Q04DX003 (sc), vehicle: saline): 50 % of control

Structure (SMILES): CC1=C(/C=C/C(C)=C/C=C/C(C)=C/CO)C(C)(C)CCC1
- T/C (dose: 50.0 mg/kg/injection, schedule: Q04DX003 (sc), vehicle: saline with Tween-80): 105 % of control
- T/C (dose: 100.0 mg/kg/injection, schedule: Q04DX003 (sc), vehicle: saline with Tween-80): 150 % of control
- T/C (dose: 400.0 mg/kg/injection, schedule: Q04DX003 (sc), vehicle: saline with Tween-80): 111 % of control

Structure (SMILES): CC1(C)N=C(N)N=C(N)N1c1ccc(F)c(C(F)(F)F)c1
- T/C (dose: 3.13 mg/kg/injection, schedule: Q01DX010 (sc), vehicle: saline): 76 % of control
- T/C [2]: 118 % of control and 122 % of control
- T/C (dose: 25.0 mg/kg/injection, schedule: Q01DX010 (sc), vehicle: saline): 33 % of control

Structure (SMILES): COc1cccc2c1C(=O)c1c(O)c3c(c(O)c1C2=O)CC(O)(/C(C)=N/NC(=O)CCC(=O)N/N=C(\C)C1(O)Cc2c(O)c4c(c(O)c2C(OC2CC(N)C(O)C(C)O2)C1)C(=O)c1c(OC)cccc1C4=O)CC3OC1CC(N)C(O)C(C)O1 (stereo not drawn)
- T/C (dose: 6.25 mg/kg/injection, schedule: Q01DX010 (sc), vehicle: water): 21 % of control (2×) and 27 % of control
- T/C (dose: 12.5 mg/kg/injection, schedule: Q01DX010 (sc), vehicle: water): 31 % of control and 46 % of control and 51 % of control

Structure (SMILES): c1cc(-c2cc3ccc(C4=NCCN4)cc3[nH]2)ccc1C1=NCCN1
- T/C [9]: 68 % of control
- T/C (dose: 50.0 mg/kg/injection, schedule: Q04DX003 (sc), vehicle: saline): 67 % of control
- T/C (dose: 100.0 mg/kg/injection, schedule: Q04DX003 (sc), vehicle: saline): 73 % of control

Structure (SMILES): O=C1N[C@@H]2C(=C[C@H](O)[C@@H](O)[C@H]2O)c2cc3c(c(O)c21)OCO3
- T/C (dose: 2.5 mg/kg/injection, schedule: Q04DX003 (sc), vehicle: saline with Tween-80): 97 % of control
- T/C (dose: 5.0 mg/kg/injection, schedule: Q04DX003 (sc), vehicle: saline with Tween-80): 109 % of control

Structure (SMILES): C[C@@]12C(=O)OC(=O)[C@]1(C)[C@H]1CC[C@@H]2O1
- T/C (dose: 1.25 mg/kg/injection, schedule: Q04DX003 (sc), vehicle: Klucel (hydroxypropylcellulose) (HPC)): 113 % of control
- T/C (dose: 2.5 mg/kg/injection, schedule: Q04DX003 (sc), vehicle: Klucel (hydroxypropylcellulose) (HPC)): 86 % of control

Structure (SMILES): O=c1nc(-c2ccco2)sc(=O)[nH]1
- T/C [1]: 90 % of control
- T/C [3]: 68 % of control
- T/C [4]: 53 % of control
- T/C [5]: 38 % of control

Structure (SMILES): Nc1ccc(Cl)cc1N
- T/C (dose: 450.0 mg/kg/injection, schedule: Q04DX003 (sc), vehicle: saline with Tween-80): 115 % of control
- T/C (dose: 900.0 mg/kg/injection, schedule: Q04DX003 (sc), vehicle: saline with Tween-80): 92 % of control

Structure (SMILES): O=c1n(CC2CO2)c(=O)n(CC2CO2)n1CC1CO1 (stereo not drawn)
- T/C (dose: 12.5 mg/kg/injection, schedule: Q04DX003 (sc), vehicle: saline): 74 % of control
- T/C [9]: 77 % of control
